In the NIST ThermoML archive (doi:10.1021/je900600c):
Numbers after ± are expanded uncertainties.

Assay: xn = mol fraction of the nth substance listed
Conditions: 101 kPa, Liquid; for electrical conductivity: Frequency=0.0005 MHz, crison conductivimeter

CCCCn1cc[n+](C)c1.F[B-](F)(F)F [1-butyl-3-methylimidazolium tetrafluoroborate] + O
Conditions	electrical conductivity [S/m]	viscosity [mPa·s]
288.15 K, x2 = 0	–	173.5 ± 47
288.15 K, x2 = 0.0476	–	134.1 ± 29
288.15 K, x2 = 0.1091	–	108.4 ± 18
288.15 K, x2 = 0.143	–	89.3 ± 11
288.15 K, x2 = 0.2389	–	58.2 ± 2
288.15 K, x2 = 0.3078	–	45.6 ± 2.3
288.15 K, x2 = 0.4	–	32.5 ± 1.7
288.15 K, x2 = 0.4954	1.4 ± 0.14	–
288.15 K, x2 = 0.5054	–	21.1 ± 1.1
288.15 K, x2 = 0.6266	–	13.77 ± 0.75
288.15 K, x2 = 0.6992	–	9.78 ± 0.55
288.15 K, x2 = 0.7981	–	6.69 ± 0.39
288.15 K, x2 = 0.9032	–	3.83 ± 0.25
298.15 K, x2 = 0	0.352 ± 0.035	99.2 ± 15
298.15 K, x2 = 0.0476	–	78.7 ± 7.8
298.15 K, x2 = 0.1091	–	65.6 ± 3.9
298.15 K, x2 = 0.143	–	55.1 ± 1.2
298.15 K, x2 = 0.2235	0.785 ± 0.08	–
298.15 K, x2 = 0.2389	–	37.7 ± 1.9
298.15 K, x2 = 0.3078	–	30.2 ± 1.6
298.15 K, x2 = 0.3705	1.3 ± 0.13	–
298.15 K, x2 = 0.4	–	22.1 ± 1.2
298.15 K, x2 = 0.4835	1.86 ± 0.19	–
298.15 K, x2 = 0.4954	2.02 ± 0.2	–
298.15 K, x2 = 0.5054	–	14.72 ± 0.79
298.15 K, x2 = 0.6173	2.75 ± 0.28	–
298.15 K, x2 = 0.6266	–	9.82 ± 0.55
298.15 K, x2 = 0.6992	–	7.07 ± 0.41
298.15 K, x2 = 0.7167	3.64 ± 0.36	–
298.15 K, x2 = 0.777	4.2 ± 0.42	–
298.15 K, x2 = 0.7981	–	4.89 ± 0.3
298.15 K, x2 = 0.8168	4.55 ± 0.46	–
298.15 K, x2 = 0.8458	4.84 ± 0.48	–
298.15 K, x2 = 0.8684	5 ± 0.5	–
298.15 K, x2 = 0.8879	5.08 ± 0.51	–
298.15 K, x2 = 0.9031	5.09 ± 0.51	–
298.15 K, x2 = 0.9032	–	2.79 ± 0.2
298.15 K, x2 = 0.9151	5.08 ± 0.51	–
298.15 K, x2 = 0.9245	5.05 ± 0.51	–
298.15 K, x2 = 0.9322	4.98 ± 0.5	–
298.15 K, x2 = 0.9396	4.84 ± 0.49	–
298.15 K, x2 = 0.9457	4.81 ± 0.48	–
298.15 K, x2 = 0.952	4.73 ± 0.48	–
298.15 K, x2 = 0.9572	4.65 ± 0.48	–
298.15 K, x2 = 0.9615	4.54 ± 0.48	–
298.15 K, x2 = 0.9654	4.41 ± 0.48	–
298.15 K, x2 = 0.9713	4.15 ± 0.41	–
298.15 K, x2 = 0.9801	3.64 ± 0.36	–
298.15 K, x2 = 0.9861	3.14 ± 0.31	–
298.15 K, x2 = 0.9896	2.68 ± 0.27	–
298.15 K, x2 = 0.993	2.11 ± 0.21	–
298.15 K, x2 = 0.9951	1.64 ± 0.16	–
298.15 K, x2 = 0.9961	1.43 ± 0.14	–
298.15 K, x2 = 0.9974	1.05 ± 0.1	–
298.15 K, x2 = 0.9982	0.788 ± 0.079	–
298.15 K, x2 = 0.999	0.475 ± 0.048	–
298.15 K, x2 = 0.9996	0.2 ± 0.02	–
308.15 K, x2 = 0	–	61.3 ± 2.8
308.15 K, x2 = 0.0476	–	49.8 ± 2.5
308.15 K, x2 = 0.1091	–	42.4 ± 2.2
308.15 K, x2 = 0.143	–	36.3 ± 1.9
308.15 K, x2 = 0.2389	–	25.9 ± 1.4
308.15 K, x2 = 0.3078	–	21.1 ± 1.1
308.15 K, x2 = 0.4	–	15.81 ± 0.85
308.15 K, x2 = 0.4954	2.61 ± 0.26	–
308.15 K, x2 = 0.5054	–	10.8 ± 0.6
308.15 K, x2 = 0.6266	–	7.33 ± 0.43
308.15 K, x2 = 0.6992	–	5.34 ± 0.33
308.15 K, x2 = 0.7981	–	3.75 ± 0.25
308.15 K, x2 = 0.9032	–	2.47 ± 0.18
318.15 K, x2 = 0	–	40.4 ± 2.1
318.15 K, x2 = 0.0476	–	33.5 ± 1.7
318.15 K, x2 = 0.1091	–	29.1 ± 1.5
318.15 K, x2 = 0.143	–	25.3 ± 1.3
318.15 K, x2 = 0.2389	–	18.62 ± 0.99
318.15 K, x2 = 0.3078	–	15.47 ± 0.83
318.15 K, x2 = 0.4	–	11.81 ± 0.65
318.15 K, x2 = 0.4954	3.25 ± 0.33	–
318.15 K, x2 = 0.5054	–	8.24 ± 0.47
318.15 K, x2 = 0.6266	–	5.68 ± 0.34
318.15 K, x2 = 0.6992	–	4.18 ± 0.27
318.15 K, x2 = 0.7981	–	2.96 ± 0.21
318.15 K, x2 = 0.9032	–	1.717 ± 0.15
